# Data as given in US20030166631A1, “Pharmaceutical compositions and methods for administering EP2 receptor selective agonists” (priority 2001, published 2003).
# How the values were obtained:
# Male Sprague-Dawley rats = assay: Rat periosteal injection model (local injection onto femur subperiosteum); format: in vivo; conditions: for BMC: right femur, DEXA
# Protocol: Male Sprague-Dawley rats at 3 weeks of age were used. The rats were anesthetized with isoflurane inhalation (2-3 minutes) in a conduction chamber located in a fume hood. The right hindlimb of each rat was shaved and cleaned. A 26 G needle attached with a hamilton syringe pre-filled with testing solution was used for the local injection. The solution was injected onto the subperiosteum of the anterior, mid-diaphyseal region of the femur in a volume of 5 to 10 ul for various days. On day 15, the rats were sacrificed and the femurs were collected for analysis. Periosteal bone induction was assessed by using radiography, dual-energy X-ray absorptiometry (DEXA) and/or peripheral quantitative computed tomography (pQCT), and histomorphometry. (Michael E, Joyce, Anita B. Roberts, Michael B. Sporn, and Mark Bolander, “Transforming growth factor-β and the initiation of chondrogenesis and osteogenesis in the rat femur,” The Journal of Cell Biology 110:2195-2207 (1990)).
# The right femurs of male Spray-Dawley rats were injected with either vehicle or test compound for 1, 3, 7, and 14 days, respectively. The solution was prepared using 2% glycine as vehicle at pH of approximately 7.8-7.9. All rats were sacrificed on day 15 and the right femurs were collected for analysis. […] The test compound was (3-(((4-tert-butyl-benzyl)-(pyridine-3-sulfonyl)-amino)-methyl)-phenoxy)-acetic acid, sodium salt;
# The right femur of each rat was injected with test compound for 3, 7 and 14 days, respectively. The left femur of each rat was injected with vehicle to serve as its own control. The solution was prepared using 2% glycine as vehicle at pH of approximately 7.8-7.9. Drug concentration was 80 mg/ml. The injected volume was 5 μl/rat/d (0.4 mg/rat/d). All rats were sacrificed on day 15 and both right and left femurs were collected for analysis. […] The test compound was 7-{[2-(3,5-dichloro-phenoxy)-ethyl]-methanesulfonyl-amino}-heptanoic acid.
# beagle male dogs = assay: Ulnar segmental defect model, enhancement of bone healing in dog; format: in vivo
# Protocol: It is clinically complex to heal segmental bone loss and non-union after fractures or reconstructive surgery. […] The following is a description of the ulnar segmental defect model used to evaluate bone healing in 11±1 kg beagle male dogs, 13 months old.
# Beagle dogs were treated with antiparasitics one week before surgery and were given two doses of Baypamun (Bayer), 72 and 24 hours before the operation. Dogs were divided into four groups of eight animals.
# Group A: 2 ml of phosphate buffered saline (PBS) was injected into the defect area filled with two helistat pre-cut sponges ([…]; 2.5×5 cm) 24, 48 and 72 hours following surgery.
# Group B: 100 mg preparation of test compound was injected into the defect area filled with two helistat pre-cut sponges ([…]; 2.5×5 cm) 24 hours following surgery and for three consecutive days (24, 48 and 72 hours).
# Group C: 100 mg preparation of test compound was injected into the defect area filled with two helistat pre-cut sponges ([…]; 2.5×5 cm) beginning 24 hours following surgery and daily thereafter for seven consecutive days.
# Group D: 100 mg preparation of test compound was injected into the defect area filled with two helistat pre-cut sponges ([…]; 2.5×5 cm) 24 hours following surgery and daily thereafter for 14 days.
# With animals under general anesthesia, the foreleg was prepped and draped in sterile fashion. A lateral incision approximately 10 cm in length was made and the ulna was exposed extraperiostally. Periosteum was cut and moved to the proximal and distal parts of the incision. Then 1.5 cm segmental defect was made in the midulna using a pendular saw. The radius and the remaining interosseal membrane were left intact. The defect site was irrigated with saline to remove bone debris. […] Both created bone ends were firmly stable and the radius served as a weight-bearing bone during the recovery process.
# The site was then filled with the two helistat sponges as described above. In particular two Helistat sponges sized 2.5 times 5 cm were rolled to form a cylinder which was secured outside with fibrin net and two resorbable sutures. In that way subsequent dermal injections had larger areas of absorption. The soft tissues were meticulously closed in layers to aid the sponges. Injections were administered via dermal suture markers in such a way that the needle reached the opposing radius and then pulled back for approximately 5 mm. The total volume per injection was 2 ml consisting either of vehicle (PBS) or test compound in PBS. Following surgery animals were allowed full weight-bearing activity, water and food ad libitum. Radiographs of the forelimbs were obtained immediately following surgery and every two weeks thereafter until the termination of the study. Radiographs were graded on a 0 to 6 scale (Table A).
# Dogs were sacrificed 12 weeks following surgery and the ulna was carefully dissected and fixed in 10% buffered formalin for histological analysis. As expected none of the control dogs re-bridged the defect confirming that the defect was a critical sized defect (Table B). Moreover, the non-union was pronounced permanent at the termination of the study since no significant progress in radiographs was observed between four and twelve weeks following surgery. In the 3-injections groups, none of the defects were re-bridged at the termination of the study. […] Radiographic scoring indicated a score between 2 and three for the dogs in this group.
# [1] = tested on: metaphysis of the left tibia; conditions: daily intraosseous injections for 14 days; cited from earlier work
# adult beagles = conditions: 0.2 mg in 0.5 ml injected into fracture sites twice a day for 10 days; cited from earlier work
# dogs = conditions: local infusion for 3 weeks, 500 to 2000 μg per week; cited from earlier work
# beagles = conditions: 0.2 mg/kg in 10% ethanol into defect site twice a day for 10 days; cited from earlier work
# [2] = 14-injections group, eight dogs
# [3] = Group D: 100 mg daily for 14 days, 12 weeks after surgery
structure (smiles),measurement,setting,value
"CC(C)(C)c1ccc(CN(Cc2cccc(OCC(=O)[O-])c2)S(=O)(=O)c2cccnc2)cc1.[Na+] [CP, (3-(((4-tert-butyl-benzyl)-(pyridine-3-sulfonyl)-amino)-methyl)-phenoxy)-acetic acid, sodium salt]",BMC,"Male Sprague-Dawley rats; 1 day of dosing, sacrifice day 15",0.0469 ± 0.0030 g
same,BMC,"Male Sprague-Dawley rats; 3 days of dosing, sacrifice day 15",0.0446 ± 0.0064 g
same,BMC,"Male Sprague-Dawley rats; 7 days of dosing, sacrifice day 15",0.0485 ± 0.0054 g
same,BMC,"Male Sprague-Dawley rats; 14 days of dosing, sacrifice day 15",0.0533 ± 0.0044 g
same,"excess calcified mass on anterior aspect of right femur, radiography","Male Sprague-Dawley rats; 14 days of treatment, sacrifice day 15",became significant
same,"excess calcified mass on anterior aspect of right femur, radiography","Male Sprague-Dawley rats; injected for 7 days, sacrifice day 15",started to show excess calcified mass
same,periosteal bone formation,"Male Sprague-Dawley rats; one- or three-day treatment, sacrifice day 15",did not result in periosteal bone formation
same,defined region bone area and bone mineral content (BMC) by DEXA compared to vehicle,Male Sprague-Dawley rats; vs vehicle-treated rats (Table I),significantly increased
same,defects re-bridged at termination of the study,beagle male dogs; 3-injections group,none
same,histological analysis of newly formed bone,beagle male dogs; 3-injections group,complete mineralization of the newly formed bone
same,new bone induction (osteoconduction and periosteal reaction),beagle male dogs; 3-injections group,observed in all the dogs
same,bone formation in the defect area,beagle male dogs; 7-injections group,Both endosteal and periosteal bone formation was observed
same,dogs showing full re-bridgement,beagle male dogs; 7-injections group,none
same,histological analysis of newly formed bone,beagle male dogs; 7-injections group,fully mineralized
same,dogs showing full re-bridgement by x-rays and histology,beagle male dogs; 14-injections group,two of the eight
same,dogs with large amount of new bone formation in defect area but defect not completely filled,beagle male dogs; [2],Three other dogs
same,"dogs with relatively less bone formation, pronounced non-responders",beagle male dogs; [2],Three dogs
same,Bridging/8 dogs,"beagle male dogs; Group B: 100 mg, 3 injections, 12 weeks after surgery",0/8
same,Bridging/8 dogs (medial healing),"beagle male dogs; Group C: 100 mg daily for 7 days, 12 weeks after surgery",1/8 showed medial healing
same,Radiographic Grading/8 dogs,"beagle male dogs; Group D: 100 mg daily for 14 days, 0 to 6 scale",4-6
same,Bridging/8 dogs (good bridging),beagle male dogs; [3],4/8
same,dogs showing almost complete healing,beagle male dogs; [3],Three
"CS(=O)(=O)N(CCCCCCC(=O)O)CCOc1cc(Cl)cc(Cl)c1 [7-{[2-(3,5-dichloro-phenoxy)-ethyl]-methanesulfonyl-amino}-heptanoic acid]",local bone formation by radiography,"Male Sprague-Dawley rats; 3-day treatment, eight femurs, 80 mg/ml, 5 μl/rat/d (0.4 mg/rat/d), left femur vehicle control",did not show evidence for increase bone formation locally
same,femurs showing increased calcified area by radiography,"Male Sprague-Dawley rats; 7-day treatment, 80 mg/ml, 5 μl/rat/d (0.4 mg/rat/d), left femur vehicle control",Two out of eight
same,femurs showing increased calcified area locally compared to controls by radiography,"Male Sprague-Dawley rats; 14-day treatment, 80 mg/ml, 5 μl/rat/d (0.4 mg/rat/d), left femur vehicle control",All femurs (n=8)
"CCCCC[C@H](O)/C=C/[C@H]1[C@H](O)CC(=O)[C@@H]1C/C=C\CCCC(=O)O [PGE2, Prostaglandin E2]",trabecular bone in the metaphysis,[1],significant increase of trabecular bone
"CCCCC[C@H](O)/C=C/[C@H]1[C@H](O)CC(=O)[C@@H]1CCCCCCC(=O)O [PGE1, prostaglandin E1]",bone matrix formation at fracture site,adult beagles,induced bone matrix formation on the periosteal envelope
same,alveolar bone formation in the mandible,dogs,"produced a dramatic, localized formation of alveolar bone"
same,periosteal and cortical endosteal bone formation,beagles,more periosteal and cortical endosteal bone formation
